This passage reports T/C results from PubChem BioAssay AID256 (DTP/NCI, 2004).

SMILES strings stand for the structures. Values joined by “and” are separate entries in the source; they are usually repeats but may differ in a detail not shown here. Equal entries are not always repeated. Inconclusive results and toxic doses are left out.

The experiment has as its system CD2F1 mice, L1210 leukemia ip, survival T/C. In words: NCI In Vivo Anticancer Drug Screen. Data for tumor model L1210 Leukemia (intraperitoneal) in CD2F1 (CDF1) mice. Particulars: higher = longer survival. Summed up: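 Transplantable tumor in mice; compound-treated vs vehicle-treated groups. Read-out = treated/control ratio of the measured endpoint.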
[1] abbreviates: endpoint: mean survival time, dose: 100.0 mg/kg/injection, schedule: Q04DX003 (ip), vehicle: saline with Tween-80.
The mark [2] stands for this setting: endpoint: mean survival time, dose: 200.0 mg/kg/injection, schedule: Q04DX003 (ip), vehicle: saline with Tween-80.
[3] abbreviates: endpoint: mean survival time, dose: 400.0 mg/kg/injection, schedule: Q04DX003 (ip), vehicle: saline with Tween-80.
Setting [4] is: endpoint: mean survival time, dose: 12.5 mg/kg/injection, schedule: Q01DX009 (ip), vehicle: saline with Tween-80.
Where [5] appears, read: endpoint: mean survival time, dose: 12.5 mg/kg/injection, schedule: Q01DX005 (ip), vehicle: distilled water + Tween-80.
Setting [6] is: endpoint: mean survival time, dose: 25.0 mg/kg/injection, schedule: Q01DX005 (ip), vehicle: distilled water + Tween-80.
[7] abbreviates: endpoint: mean survival time, dose: 50.0 mg/kg/injection, schedule: Q01DX005 (ip), vehicle: distilled water + Tween-80.
[8] abbreviates: endpoint: mean survival time, dose: 100.0 mg/kg/injection, schedule: Q01DX005 (ip), vehicle: distilled water + Tween-80.
Where [9] appears, read: endpoint: mean survival time, dose: 200.0 mg/kg/injection, schedule: Q01DX005 (ip), vehicle: distilled water + Tween-80.
[10] abbreviates: endpoint: mean survival time, dose: 100.0 mg/kg/injection, schedule: Q01DX009 (ip), vehicle: saline with Tween-80.
Where [11] appears, read: endpoint: mean survival time, dose: 200.0 mg/kg/injection, schedule: Q01DX009 (ip), vehicle: saline with Tween-80.

For `O=Cc1ccccc1O`, where the note is “endpoint: mean survival time, dose: 100.0 mg/kg/injection, schedule: Q04DX002 (ip), vehicle: saline”, the T/C was 93 % of control.

With `OC(c1nc2ccccc2[nH]1)C(O)c1nc2ccccc2[nH]1` (configuration not stated), the T/C runs as follows: under setting [1], 101 % of control; under setting [2], 102 % of control; under setting [3], 96 % of control.

Regarding `CC(=O)Oc1ccc(C(=O)O)cc1`, the T/C reads like this: (endpoint: mean survival time, dose: 50.0 mg/kg/injection, schedule: Q01DX009 (ip), vehicle: Klucel (hydroxypropylcellulose) (HPC)) 91 % of control; (endpoint: mean survival time, dose: 100.0 mg/kg/injection, schedule: Q01DX009 (ip), vehicle: Klucel (hydroxypropylcellulose) (HPC)) 98 % of control.

Turning to `COc1ccc(OC)c(C2=CCCCCC2)c1`, the T/C was 101 % of control under setting [1], 102 % of control under setting [2] and 90 % of control under setting [3].

Regarding `Cc1ccc(S(=O)(=O)/C=C/c2ccccc2)cc1`, the T/C was 103 % of control (endpoint: mean survival time, dose: 100.0 mg/kg/injection, schedule: Q01DX001 (ip), vehicle: saline); 96 % of control (endpoint: mean survival time, dose: 100.0 mg/kg/injection, schedule: Q04DX003 (ip), vehicle: saline); 108 % of control (endpoint: mean survival time, dose: 200.0 mg/kg/injection, schedule: Q01DX001 (ip), vehicle: saline); 93 % of control (endpoint: mean survival time, dose: 200.0 mg/kg/injection, schedule: Q04DX003 (ip), vehicle: saline); 100 % of control (endpoint: mean survival time, dose: 400.0 mg/kg/injection, schedule: Q01DX001 (ip), vehicle: saline); 87 % of control (endpoint: mean survival time, dose: 400.0 mg/kg/injection, schedule: Q04DX003 (ip), vehicle: saline).

Consider `Cc1cc(N(CCOS(C)(=O)=O)CCOS(C)(=O)=O)ccc1C=Nc1ccc(-c2csc(Cc3ccccc3)n2)cc1`, for which the T/C is 102 % of control (endpoint: mean survival time, dose: 6.25 mg/kg/injection, schedule: Q01DX009 (ip), vehicle: saline with Tween-80) and 105 % of control under setting [4].

Turning to `CSc1nn(C2OC(CO)C(O)C2O)c(=O)[nH]c1=O` (configuration not stated), the T/C by setting is: under setting [5], 102 % of control; under setting [6], 95 % of control; under setting [7], 98 % of control; under setting [8], 102 % of control; under setting [9], 104 % of control.

On to `Cc1ccc(NC(=S)Nc2ccc(C)cc2)cc1`, for which the T/C was 89 % of control under setting [10]; 91 % of control under setting [11]; 93 % of control (endpoint: mean survival time, dose: 400.0 mg/kg/injection, schedule: Q01DX009 (ip), vehicle: saline with Tween-80).

As for `NC(=S)N/N=C/c1ccccn1`, the T/C (endpoint: mean survival time, dose: 1.56 mg/kg/injection, schedule: Q04DX002 (ip), vehicle: Klucel (hydroxypropylcellulose) (HPC)) is 108 % of control; the T/C (endpoint: mean survival time, dose: 3.12 mg/kg/injection, schedule: Q04DX002 (ip), vehicle: Klucel (hydroxypropylcellulose) (HPC)) is 112 % of control; the T/C (endpoint: mean survival time, dose: 6.25 mg/kg/injection, schedule: Q04DX002 (ip), vehicle: Klucel (hydroxypropylcellulose) (HPC)) is 92 % of control; the T/C (endpoint: mean survival time, dose: 6.7 mg/kg/injection, schedule: Q01DX009 (ip), vehicle: saline with Tween-80) was 151 % of control; the T/C (endpoint: mean survival time, dose: 10.0 mg/kg/injection, schedule: Q01DX009 (ip), vehicle: saline with Tween-80) was 107 % of control; the T/C (endpoint: mean survival time, dose: 15.0 mg/kg/injection, schedule: Q01DX009 (ip), vehicle: saline with Tween-80) was 93 % of control.

On to `O=C(COc1cccc(Cl)c1)Nc1ccc(S(=O)(=O)F)cc1`, for which the T/C is, setting by setting: (endpoint: mean survival time, dose: 100.0 mg/kg/injection, schedule: Q01DX001 (ip), vehicle: saline with Tween-80) 97 % of control; (endpoint: mean survival time, dose: 200.0 mg/kg/injection, schedule: Q01DX001 (ip), vehicle: saline with Tween-80) 95 % of control; (endpoint: mean survival time, dose: 400.0 mg/kg/injection, schedule: Q01DX001 (ip), vehicle: saline with Tween-80) 91 % of control.

For `[Cl][Pt+2][Cl].[NH-]CC(O)C[NH-]`, the T/C (endpoint: median survival time, dose: 5.0 mg/kg/injection, schedule: Q04DX003 (ip), vehicle: saline) is 108 % of control; the T/C (endpoint: median survival time, dose: 10.0 mg/kg/injection, schedule: Q04DX003 (ip), vehicle: saline) is 103 % of control; the T/C (endpoint: median survival time, dose: 20.0 mg/kg/injection, schedule: Q04DX003 (ip), vehicle: saline) was 105 % of control; the T/C (endpoint: median survival time, dose: 40.0 mg/kg/injection, schedule: Q04DX003 (ip), vehicle: saline) was 108 % of control.

With `CC#CCO`, the T/C is, setting by setting: under setting [10], 104 % of control; under setting [11], 98 % of control.

Turning to `CCCCCCCCCCCC(=O)NC(=S)Nc1ncccn1`, the T/C was 93 % of control (endpoint: mean survival time, dose: 100.0 mg/kg/injection, schedule: Q01DX001 (ip), vehicle: other); 91 % of control and 97 % of control (endpoint: mean survival time, dose: 100.0 mg/kg/injection, schedule: Q01DX009 (ip), vehicle: other); 98 % of control (endpoint: mean survival time, dose: 100.0 mg/kg/injection, schedule: Q04DX002 (ip), vehicle: other); 87 % of control (endpoint: mean survival time, dose: 200.0 mg/kg/injection, schedule: Q01DX001 (ip), vehicle: other); 92 % of control and 93 % of control (endpoint: mean survival time, dose: 200.0 mg/kg/injection, schedule: Q01DX009 (ip), vehicle: other); 102 % of control (endpoint: mean survival time, dose: 200.0 mg/kg/injection, schedule: Q04DX002 (ip), vehicle: other). For the same compound, the T/C is, setting by setting: (endpoint: mean survival time, dose: 400.0 mg/kg/injection, schedule: Q01DX001 (ip), vehicle: other) 93 % of control; (endpoint: mean survival time, dose: 400.0 mg/kg/injection, schedule: Q01DX009 (ip), vehicle: other) 92 % of control and 101 % of control; (endpoint: mean survival time, dose: 400.0 mg/kg/injection, schedule: Q04DX002 (ip), vehicle: other) 87 % of control.

In the case of `COc1ccc(/C=N/N=C/c2ccc(OC)cc2)cc1`, the T/C is 104 % of control (endpoint: mean survival time, dose: 100.0 mg/kg/injection, schedule: Q04DX003 (ip), vehicle: Klucel (hydroxypropylcellulose) (HPC)); 100 % of control (endpoint: mean survival time, dose: 200.0 mg/kg/injection, schedule: Q04DX003 (ip), vehicle: Klucel (hydroxypropylcellulose) (HPC)); 114 % of control (endpoint: mean survival time, dose: 400.0 mg/kg/injection, schedule: Q04DX003 (ip), vehicle: Klucel (hydroxypropylcellulose) (HPC)).

For the compound `O=C(COc1ccc(Cl)cc1Cl)Nc1ccccc1`, the T/C is 91 % of control (endpoint: mean survival time, dose: 100.0 mg/kg/injection, schedule: Q04DX002 (ip), vehicle: saline with Tween-80); 95 % of control (endpoint: mean survival time, dose: 200.0 mg/kg/injection, schedule: Q04DX002 (ip), vehicle: saline with Tween-80); 98 % of control (endpoint: mean survival time, dose: 400.0 mg/kg/injection, schedule: Q04DX002 (ip), vehicle: saline with Tween-80).

In the case of `CC(=O)N(c1ccccc1)C1CCC2(C)C(=CCC3C2CCC2(C)C(C(C)CCCC(C)C)CCC32)C1` (configuration not stated), the T/C by setting is: (endpoint: mean survival time, dose: 100.0 mg/kg/injection, schedule: Q01DX009 (sc), vehicle: steriod suspending solution) 96 % of control; (endpoint: mean survival time, dose: 100.0 mg/kg/injection, schedule: Q04DX003 (sc), vehicle: steriod suspending solution) 95 % of control; (endpoint: mean survival time, dose: 200.0 mg/kg/injection, schedule: Q01DX009 (sc), vehicle: steriod suspending solution) 102 % of control; (endpoint: mean survival time, dose: 200.0 mg/kg/injection, schedule: Q04DX003 (sc), vehicle: steriod suspending solution) 93 % of control; (endpoint: mean survival time, dose: 400.0 mg/kg/injection, schedule: Q01DX009 (sc), vehicle: steriod suspending solution) 102 % of control; (endpoint: mean survival time, dose: 400.0 mg/kg/injection, schedule: Q04DX003 (sc), vehicle: steriod suspending solution) 96 % of control.

With `CCOC(=O)NN=C1CCCC1`, the T/C is 88 % of control under setting [4]; 88 % of control (endpoint: mean survival time, dose: 25.0 mg/kg/injection, schedule: Q01DX009 (ip), vehicle: saline with Tween-80); 92 % of control (endpoint: mean survival time, dose: 50.0 mg/kg/injection, schedule: Q01DX009 (ip), vehicle: saline with Tween-80).

Regarding `CC(=O)/C=C\C1OC(n2ccc(=O)[nH]c2=O)C2OC(C)(C)OC12` (configuration not stated), the T/C was 105 % of control under setting [5]; 103 % of control under setting [6]; 97 % of control under setting [7]; 102 % of control under setting [8]; 103 % of control under setting [9].

On to `CCOC(=O)Nc1cc(NCCc2ccccc2)c([N+](=O)[O-])c(N)n1`, for which the T/C (endpoint: mean survival time, dose: 100.0 mg/kg/injection, schedule: Q01DX001 (ip), vehicle: Klucel (hydroxypropylcellulose) (HPC)) is 91 % of control; the T/C (endpoint: mean survival time, dose: 200.0 mg/kg/injection, schedule: Q01DX001 (ip), vehicle: Klucel (hydroxypropylcellulose) (HPC)) is 94 % of control; the T/C (endpoint: mean survival time, dose: 400.0 mg/kg/injection, schedule: Q01DX001 (ip), vehicle: Klucel (hydroxypropylcellulose) (HPC)) was 86 % of control.
